Assay results published in paper PMC4127532 (Journal of Medicinal Chemistry, 2014).

System: A/England/195/2009 (H1N1), M2/N31
Format: cell-based
Settings: 100 μM

## NC1C2CC3CC(C2)CC1C3 (stereo not shown) [Compound 3]
  % block after 30 min: 16 (100 μM; 1) %
